From paper PMC7998250, “Temperate Zone Plant Natural Products—A Novel Resource for Activity against Tropical Parasitic Diseases” (Pharmaceuticals, 2021)
Where two headings read alike, the source gives them in different places.

Columns and labels:
[1] = test system: 700022-resistant line of L. mexicana (r22) axenic amastigotes; experiment: EC50 in 700022-resistant L. mexicana (r22) axenic amastigotes; format: cell-based, Leishmania mexicana; conditions: for r22 8 weeks RI (resistance index, EC50 in r22/EC50 in WT): 8 weeks of 700022 selection pressure
Method: A 700022-resistant line of L. mexicana (r22) was generated using a previously reported method (Figure S3). […] All leishmanicidal sterols identified were assayed against r22 after 8 weeks of 700022 pressure and cross-resistance was found against all four compounds, each with a similar resistance index of between 4–5 (Figure 6c). Following 28 weeks of selection, the morphology of the r22 promastigotes was compared to that of WT (Figure 6d). […] The body area of both promastigotes and amastigotes was also assessed, noting a small (c 20%) decrease in the body area of r22 parasites compared to WT strains (Figure S3).
Figure 6 Comparison between wildtype and 700022-resistant (r22) L. mexicana cell lines. Log concentration versus normalised (compared to untreated control) growth curves for wildtype (WT) and corresponding 700022-selected (r22) L. mexicana (a) promastigotes and (b) axenic amastigotes. Error bars represent upper and lower limits of the StDev (n = 9). […] The resistance index (EC50 in r22/EC50 in WT) are shown for each compound. (d) Scanning electron micrographs of WT and r22 promastigotes illustrating the shortened flagellum in r22 parasites. (e) Analysis of flagellum length in WT and r22 promastigotes (n = 287 of each strain) reported using a box and whisker plot (boxes represents the 25–75th percent distribution with the mean as a horizontal line, whiskers represent the distribution of all values) with a statistically significant difference (Mann–Whitney U test, p-value < 2.2 × 10^−16). […] Error bars represent upper and lower limits of the StDev (n = 9). […] The resistance index (EC50 in r22/EC50 in WT) are shown for each compound. TEXT PRINTED IN THE PICTURE: (c) 700022: 4.1 | (c) 700107: 4.1 | (c) 700136: 5.3 | (c) 700240: 5.3 | (f) 700022: 42.1 | (f) Milt: 17.9 | (f) Pent: 0.75 | (f) AmpB: 1.22 DOUBTS OF THE COPYIST ABOUT THIS PICTURE: Panels c and f: the numbers printed above the bar pairs have no measure or unit printed with them in the picture.
L. mexicana parasites were grown in increasing concentrations of 700022 in a stepwise manner, as previously described. […] A dose response assay of the newly selected promastigotes was completed as stated above, with the exception of the seeding density of 1 × 10^5 cells/mL. At this point, the drug pressure was increased to the concentration of the new EC50 value.

[2] = test system: P. falciparum 3D7; experiment: Concentration-response EC50, P. falciparum 3D7; format: cell-based; conditions: Plasmodium falciparum
Source text: This is not surprising as the rate of kill is a result of the mechanism of cell death and, given their structural similarity, these three bisobolane sesquiterpene glycosides likely share the same target(s), albeit with some differences in affinity. The rate of kill, relatively, falls between that of atovaquone and dihydroartemisinin and is more similar to that of chloroquine.

[3] = test system: T. brucei; experiment: Concentration-response EC50, T. brucei; format: cell-based, Trypanosoma brucei brucei; conditions: 48 h
Source text: Initial hits from the parasite panel screen were taken forward in log concentration versus normalised response assays to estimate the half maximal effective concentration (EC50) in hit species as well as the half maximal cytotoxic concentrations (CC50) in the human hepatoma cell line HepG2 as a preliminary test for selectivity. Using CC50/EC50 to define the selectivity index (SI), the selectivity for each compound in a defined species compared to a human cell line was estimated and compared to the EC50 (Figure 3).
EC50 values were determined by serial two-fold dilution of each compound in 96 well plates. Culture conditions and viability assays were as stated for the initial screen, with some exceptions. L. mexicana and L. donovani axenic amastigotes were seeded at 2 × 10^6 cell/s mL, T. brucei and T. evansi were seeded at 2 × 10^5 cells/mL. For cytotoxicity studies, HepG2 cells were seeded at 1 × 10^5 cells/mL, incubated for 48 h and viability was assessed using the Alamar Blue assay [66, 67]. […] Normalised growth and viability data (compared to untreated controls) were plotted against Log10 concentration to estimate EC50 in GraphPad (Prism v6).

[4] = test system: T. evansi; experiment: Concentration-response EC50, T. evansi; format: cell-based; conditions: Trypanosoma evansi, 48 h, read-out: T. evansi EC50
[5] = test system: activated monocyte cell line (THP-1); experiment: Cytotoxicity CC50, differentiated THP-1, Alamar Blue; format: cell-based, human; conditions: for CC50: differentiated THP-1, 48 h, read-out: THP1 CC50
[6] = Leishmania mexicana, read-out: r22 8 weeks EC50, r22 after 8 weeks of 700022 selection pressure
[7] = 3D7, read-out: P. falciparum 3D7 EC50
[8] = Trypanosoma brucei, read-out: T. brucei EC50, bloodstream form, 48 h

Compound | r22 8 weeks RI (resistance index, EC50 in r22/EC50 in WT) [1] | EC50 [1, 6] [nM] | EC50 [2, 7] [nM] | EC50 [3, 8] [nM] | EC50 [4] [nM] | further results
CC1=CC(O)(CC(C)C2(C)CC=C3C4=CCC5C(C)(C)C(O)CCC5(C)C4CCC32C)OC1=O (stereo not drawn) [Compound 700022] | 4.1 | 1000 | – | – | – | EC50 ([1]; Leishmania mexicana, read-out: r22 28 weeks EC50, r22 after 28 weeks of 700022 selection pressure): 10100 nM; EC50 ([1]; read-out: r22 28 weeks EC50, r22 after 28 weeks of 700022 selection pressure): 10000 nM
CC1OC(OC2C(OC(=O)C3CC[C@@H]4[C@H](C3)OC3(CC(OC(=O)/C=C/c5ccccc5)[C@@H](C)CO3)C43CO3)OC(CO)C(O)C2O)C(O)C(O)C1O (stereo partly drawn) [Compound 700042] | – | – | 190 | 410 | 618 | –
CC1=CC(O)(CC(C)C2(C)CCC3C4=CCC5C(C)(CCC(O)C5(C)C)C4=CCC32C)OC1=O (stereo not drawn) [Compound 700107] | 4.1 | 1100 | – | – | – | –
CC1=CC(O)(CC(C)C2(C)CC=C3C4=CCC5C(C)(C)C(=O)CCC5(C)C4CCC32C)OC1=O (stereo not drawn) [Compound 700136] | 5.3 | 1100 | – | – | – | –
C/C(=C/C(=O)CC(C)C1CCC2(C)C3=CCC4C(C)(C)C(=O)CCC4(C)C3CCC12C)C(=O)O (stereo not drawn) [Compound 700240] | 5.3 | 2700 | – | – | – | selectivity index (THP-1 CC50 / L. mexicana EC50) ([5]; L. mexicana compared to THP-1): 21; CC50 [5]: 14000 nM
C=C1C(=O)OC2CC(C)C3C=CC(=O)C3(C)C(OC(C)=O)C12 (stereo not drawn) [Compound 701155] | – | – | 2900 | – | 135 | CC50 [5]: 380 nM; EC50 ([3]; read-out: T. brucei EC50, bloodstream form): 150 nM
C=C1C(=O)OC2CC(C)C3C=CC(=O)C3(C)C(OC(=O)C(C)C)C12 (stereo not drawn) [Compound 701157] | – | – | 2100 | 290 | 191 | –
C=C1C(=O)OC2CC(C)C3C=CC(=O)C3(C)C(OC(=O)C(C)CC)C12 (stereo not drawn) [Compound 701158] | – | – | 1500 | 310 | 244 | –
C=C1C(=O)OC2CC(C)C3C(OC)CC(=O)C3(C)C(OC(=O)C(C)CC)C12 (stereo not drawn) [Compound 701159] | – | – | – | – | – | EC50 ([2]; 3D7, intraerythrocytic, read-out: P. falciparum 3D7 EC50): 4600 nM; EC50 ([3]; Trypanosoma brucei, bloodstream form, read-out: T. brucei EC50): 390 nM
